Test results taken from patent publication US10508104B2, “6-hydroxy-5-(phenyl/heteroarylsulfonyl)pyrimidin-4(1H)-one as APJ agonists” (Bristol-Myers Squibb Company, priority 2016, dated 2019).
pEC50: −log10 of the molar value.

Biological target: human APJ receptor (Homo sapiens (Human), UniProt P35414)
Experiment: Intracellular cAMP accumulation assay (APJ hcAMP, HTRF)
Assay type: cell-based
Conditions: human APJ, cAMP accumulation; read-out: Human APJ cAMP EC50 Potency range
Procedure, shortened: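 HEK293 cells stably expressing human APJ, 5,000 per well, incubated 30 min at rt with compound, […] and 2 μM forskolin. cAMP measured by HTRF against a cAMP standard curve as inhibition of forskolin-driven production. EC50 from variable-slope sigmoidal fit.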

Chain of human APJ receptor (P35414 whole entry): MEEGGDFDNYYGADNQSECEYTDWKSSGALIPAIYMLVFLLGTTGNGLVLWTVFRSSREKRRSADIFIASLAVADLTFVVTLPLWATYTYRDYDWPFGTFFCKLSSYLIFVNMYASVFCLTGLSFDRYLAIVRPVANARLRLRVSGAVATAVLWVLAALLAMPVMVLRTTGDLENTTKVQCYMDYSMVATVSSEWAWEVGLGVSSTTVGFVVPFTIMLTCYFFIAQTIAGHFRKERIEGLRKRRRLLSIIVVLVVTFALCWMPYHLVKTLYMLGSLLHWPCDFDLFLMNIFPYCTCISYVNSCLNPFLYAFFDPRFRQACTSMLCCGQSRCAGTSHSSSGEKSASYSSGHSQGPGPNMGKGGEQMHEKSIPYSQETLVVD

pEC50 | SMILES
6.52 to 7.00 | CCCCc1nc(O)c(S(=O)(=O)c2ccc(Br)cc2)c(=O)n1[C@@H](C)c1ccccc1OC [Example 238, 5-(4-bromobenzenesulfonyl)-2-butyl-6-hydroxy-3-[(1S)-1-(2-methoxyphenyl)ethyl]-3,4-dihydropyrimidin-4-one]
8.00 to 11.00 | CCCCc1nc(=O)c(S(=O)(=O)c2ccc(-c3ccnc(F)c3C)cc2)c(O)n1[C@@H](C)c1ccccc1OC [Example 239, 2-butyl-5-[4-(2-fluoro-3-methylpyridin-4-yl)benzenesulfonyl]-6-hydroxy-1-[(1S)-1-(2-methoxyphenyl)ethyl]-1,4-dihydropyrimidin-4-one]
8.00 to 11.00 | CCCCc1nc(=O)c(S(=O)(=O)c2ccc(-c3ccc(F)nc3C)cc2)c(O)n1[C@@H](C)c1ccccc1OC [Example 240, 2-butyl-5-[4-(6-fluoro-2-methylpyridin-3-yl)benzenesulfonyl]-6-hydroxy-1-[(1S)-1-(2-methoxyphenyl)ethyl]-1,4-dihydropyrimidin-4-one]
8.00 to 11.00 | CCCCc1nc(=O)c(S(=O)(=O)c2ccc(-c3cncc(F)c3)cc2)c(O)n1[C@@H](C)c1ccc(OC)cc1 [Example 241, 2-butyl-5-[4-(5-fluoropyridin-3-yl)benzenesulfonyl]-6-hydroxy-1-[(1S)-1-(4-methoxyphenyl)ethyl]-1,4-dihydropyrimidin-4-one]
8.00 to 11.00 | CCCCCc1nc(=O)c(S(=O)(=O)c2ccc(-c3ccnc(F)c3C)cc2)c(O)n1[C@@H](COC)c1ccccc1 [Example 242, 5-[4-(2-fluoro-3-methylpyridin-4-yl)benzenesulfonyl]-6-hydroxy-1-[(1R)-2-methoxy-1-phenylethyl]-2-pentyl-1,4-dihydropyrimidin-4-one]
8.00 to 11.00 | CCCCc1nc(=O)c(S(=O)(=O)c2ccc(-c3ccnc(F)c3C)cc2)c(O)n1[C@H]1CCCc2ccccc21 [Example 243, 2-butyl-5-[4-(2-fluoro-3-methylpyridin-4-yl)benzenesulfonyl]-6-hydroxy-1-[(1S)-1,2,3,4-tetrahydronaphthalen-1-yl]-1,4-dihydropyrimidin-4-one]
8.00 to 11.00 | CCCCc1nc(=O)c(S(=O)(=O)c2ccc(-c3ccnc(F)c3C)cc2)c(O)n1[C@@H](C)c1ccc(OC)cc1 [Example 244, 2-butyl-5-[4-(2-fluoro-3-methylpyridin-4-yl)benzenesulfonyl]-6-hydroxy-1-[(1S)-1-(4-methoxyphenyl)ethyl]-1,4-dihydropyrimidin-4-one]
8.00 to 11.00 | CCCCCc1nc(=O)c(S(=O)(=O)c2ccc(-c3ccncc3C)cc2)c(O)n1[C@@H](COC)c1ccccc1 [Example 245, 6-hydroxy-1-[(1R)-2-methoxy-1-phenylethyl]-5-[4-(3-methylpyridin-4-yl)benzenesulfonyl]-2-pentyl-1,4-dihydropyrimidin-4-one]
8.00 to 11.00 | CCCCc1nc(O)c(S(=O)(=O)c2ccc(Br)cc2)c(=O)n1[C@@H](C)c1ccc(OC)cc1 [Example 246, 5-(4-bromobenzenesulfonyl)-2-butyl-6-hydroxy-3-[(1S)-1-(4-methoxyphenyl)ethyl]-3,4-dihydropyrimidin-4-one]
7.00 to 8.00 | CCCCCc1nc(=O)c(S(=O)(=O)c2ccc(Br)cc2)c(O)n1[C@@H](COC)c1ccccc1 [Example 247, 5-(4-bromobenzenesulfonyl)-6-hydroxy-3-[(1R)-2-methoxy-1-phenylethyl]-2-pentyl-3,4-dihydropyrimidin-4-one]
8.00 to 11.00 | CCCCCc1nc(=O)c(S(=O)(=O)c2ccc(-c3cncc(F)c3)cc2)c(O)n1[C@@H](COC)c1ccccc1 [Example 248, 5-[4-(5-fluoropyridin-3-yl)benzenesulfonyl]-6-hydroxy-1-[(1R)-2-methoxy-1-phenylethyl]-2-pentyl-1,4-dihydropyrimidin-4-one]
8.00 to 11.00 | CCCCCc1nc(=O)c(S(=O)(=O)c2ccc(-c3cccnc3C)cc2)c(O)n1[C@@H](COC)c1ccccc1 [Example 249, 6-hydroxy-1-[(1R)-2-methoxy-1-phenylethyl]-5-[4-(2-methylpyridin-3-yl)benzenesulfonyl]-2-pentyl-1,4-dihydropyrimidin-4-one]
8.00 to 11.00 | CCCCCc1nc(=O)c(S(=O)(=O)c2ccc(-c3ccc(F)nc3C)cc2)c(O)n1[C@@H](COC)c1ccccc1 [Example 250, 5-[4-(6-fluoro-2-methylpyridin-3-yl)benzenesulfonyl]-6-hydroxy-1-[(1R)-2-methoxy-1-phenylethyl]-2-pentyl-1,4-dihydropyrimidin-4-one]
8.00 to 11.00 | CCCCc1nc(=O)c(S(=O)(=O)c2ccc(-c3ccncc3C)cc2)c(O)n1[C@@H](COC)c1cccc(C#N)c1 [Example 251, 3-[(1R)-1-{2-butyl-6-hydroxy-5-[4-[3-methylpyridin-4-yl)benzenesulfonyl]-4-oxo-1,4-dihydropyrimidin-1-yl}-2-methoxyethyl] benzonitrile]
8.00 to 11.00 | CCCCc1nc(=O)c(S(=O)(=O)c2ccc(-c3ccncc3C)cc2)c(O)n1[C@@H](CC)c1ccc2c(c1)OCO2 [Example 252, 1-[(1S)-1-(2H-1,3-benzodioxol-5-yl)propyl]-2-butyl-6-hydroxy-5-[4-(3-methylpyridin-4-yl)benzenesulfonyl]-1,4-dihydropyrimidin-4-one]
8.00 to 11.00 | CCCCc1nc(=O)c(S(=O)(=O)c2ccc(-c3ccnc(F)c3C)cc2)c(O)n1[C@@H](COC)c1cccc(C#N)c1 [Example 253, 3-[(1R)-1-{2-butyl-5-[4-(2-fluoro-3-methylpyridin-4-yl)benzenesulfonyl]-6-hydroxy-4-oxo-1,4-dihydropyrimidin-1-yl}-2-methoxyethyl] benzonitrile]
7.00 to 8.00 | CCCCc1nc(O)c(S(=O)(=O)c2ccc(Br)cc2)c(=O)n1[C@H](CC)c1cccc2c1OCO2 [Example 254, 3-[(1R)-1-(2H-1,3-benzodioxol-4-yl)propyl]-5-(4-bromobenzenesulfonyl)-2-butyl-6-hydroxy-3,4-dihydropyrimidin-4-one]
8.00 to 11.00 | CCCCc1nc(=O)c(S(=O)(=O)c2ccc(-c3cncc(F)c3)cc2)c(O)n1[C@H](CC)c1cccc2c1OCO2 [Example 255, 1-[(1R)-1-(2H-1,3-benzodioxol-4-yl)propyl]-2-butyl-5-[4-(5-fluoropyridin-3-yl)benzenesulfonyl]-6-hydroxy-1,4-dihydropyrimidin-4-one]
8.00 to 11.00 | CCCCc1nc(=O)c(S(=O)(=O)c2ccc(-c3ccncc3C)cc2)c(O)n1[C@@H](CC)c1cccc2c1OCO2 [Example 256, 1-[(1S)-1-(2H-1,3-benzodioxol-4-yl)propyl]-2-butyl-6-hydroxy-5-[4-(3-methylpyridin-4-yl)benzenesulfonyl]-1,4-dihydropyrimidin-4-one]
8.00 to 11.00 | CCCCc1nc(=O)c(S(=O)(=O)c2ccc(-c3ccnc(F)c3C)cc2)c(O)n1[C@@H](CC)c1cccc2c1OCO2 [Example 257, 1-[(1S)-1-(2H-1,3-benzodioxol-4-yl)propyl]-2-butyl-5-[4-(2-fluoro-3-methylpyridin-4-yl)benzenesulfonyl]-6-hydroxy-1,4-dihydropyrimidin-4-one]
8.00 to 11.00 | CCCCc1nc(=O)c(S(=O)(=O)c2ccc(-c3cncc(F)c3)cc2)c(O)n1[C@@H](CC)c1cccc2c1OCO2 [Example 258, 1-[(1S)-1-(2H-1,3-benzodioxol-4-yl)propyl]-2-butyl-5-[4-(5-fluoropyridin-3-yl)benzenesulfonyl]-6-hydroxy-1,4-dihydropyrimidin-4-one]
8.00 to 11.00 | CCCCc1nc(=O)c(S(=O)(=O)c2ccc(-c3ccncc3C)cc2)c(O)n1[C@H](CC)c1cccc2c1OCO2 [Example 259, 1-[(1R)-1-(2H-1,3-benzodioxol-4-yl)propyl]-2-butyl-6-hydroxy-5-[4-(3-methylpyridin-4-yl)benzenesulfonyl]-1,4-dihydropyrimidin-4-one]
8.00 to 11.00 | CCCCc1nc(=O)c(S(=O)(=O)c2ccc(-c3cccnc3C)cc2)c(O)n1[C@H](CC)c1cccc2c1OCO2 [Example 260, 1-[(1R)-1-(2H-1,3-benzodioxol-4-yl)propyl]-2-butyl-6-hydroxy-5-[4-(2-methylpyridin-3-yl)benzenesulfonyl]-1,4-dihydropyrimidin-4-one]
8.00 to 11.00 | CCCCc1nc(O)c(S(=O)(=O)c2ccc(Br)cc2)c(=O)n1[C@@H](CC)c1cccc2c1OCO2 [Example 261, 3-[(1S)-1-(2H-1,3-benzodioxol-4-yl)propyl]-5-(4-bromobenzenesulfonyl)-2-butyl-6-hydroxy-3,4-dihydropyrimidin-4-one]
8.00 to 11.00 | CCCCc1nc(=O)c(S(=O)(=O)c2ccc(-c3ccc(F)nc3C)cc2)c(O)n1[C@H](CC)c1cccc2c1OCO2 [Example 262, 1-[(1R)-1-(2H-1,3-benzodioxol-4-yl)propyl]-2-butyl-5-[4-(6-fluoro-2-methylpyridin-3-yl)benzenesulfonyl]-6-hydroxy-1,4-dihydropyrimidin-4-one]
8.00 to 11.00 | CCCCc1nc(=O)c(S(=O)(=O)c2ccc(-c3cccnc3C)cc2)c(O)n1[C@@H](CC)c1cccc2c1OCO2 [Example 263, 1-[(1S)-1-(2H-1,3-benzodioxol-4-yl)propyl]-2-butyl-6-hydroxy-5-[4-(2-methylpyridin-3-yl)benzenesulfonyl]-1,4-dihydropyrimidin-4-one]
8.00 to 11.00 | CCCCc1nc(=O)c(S(=O)(=O)c2ccc(-c3ccc(F)nc3C)cc2)c(O)n1[C@@H](CC)c1cccc2c1OCO2 [Example 264, 1-[(1S)-1-(2H-1,3-benzodioxol-4-yl)propyl]-2-butyl-5-[4-(6-fluoro-2-methylpyridin-3-yl)benzenesulfonyl]-6-hydroxy-1,4-dihydropyrimidin-4-one]
8.00 to 11.00 | CCCCc1nc(=O)c(S(=O)(=O)c2ccc(-c3ccncc3C)cc2)c(O)n1[C@@H](CC)c1ccc(C#N)cc1 [Example 265, 4-[(1S)-1-{2-butyl-6-hydroxy-5-[4-(3-methylpyridin-4-yl)benzenesulfonyl]-4-oxo-1,4-dihydropyrimidin-1-yl}propyl]benzonitrile]
